Laboratory results published in ChEMBL document CHEMBL1125092, “Nonneurotoxic tetralin and indan analogues of 3,4-(methylenedioxy)amphetamine (MDA)” (J Med Chem, 1990).
Where “and” joins values, the source holds several entries; their conditions need not be identical. Equal values may be shown once.

How the values were obtained:
[1] = test system: Rattus norvegicus; assay: Tested for stimulus generation in rats trained to discriminate LSD from saline at a dose 4.39 (umol/kg),(number of animals =11); format: functional
[2] = Binding affinity was determined towards serotonin uptake site in presence of [3H]paroxetine radioligand in rat brain cortical homogenate; format: tissue-based
[3] = Binding affinity was determined towards serotonin uptake site in presence of [3H]paroxetine radioligand in rat hippocampal homogenate; format: tissue-based, Hippocampus
[4] = test system: Rattus norvegicus; assay: Hallucinogenic property was determined in groups of MDMA trained rats and percentage of animals disrupted was reported at a dose 2.2 (umol/kg), (number of animals =9); format: functional
[5] = test system: Rattus norvegicus; assay: Tested for stimulus generation in rats trained to discriminate LSD from saline at a dose 2.2 (umol/kg), (number of animals = 15); format: functional
[6] = organism: Rattus norvegicus; assay: Compounds were evaluated for binding of [3H]paroxetine to rat brain cortical homogenate and number of binding sites (Bmax) for serotonin; format: tissue-based
[7] = test system: Rattus norvegicus; assay: Monoamine levels in at hippocampus were evaluated after subcutaneous administration of 40 mg/kg for NE; format: functional
[8] = test system: Rattus norvegicus; assay: Monoamine levels in rat hippocampus were evaluated after subcutaneous administration of 40 mg/kg for 5-HT; format: functional
[9] = test system: Rattus norvegicus; assay: Tested for stimulus generation in rats trained to discriminate +/-MDMA from saline at 8.78 (umol/kg), (number of animals = 8); format: functional
[10] = test system: Rattus norvegicus; assay: Hallucinogenic property was determined in groups of LSD trained rats and percentage of animals disrupted was reported at a dose 17.57(umol/kg), (number of animals =21); format: functional
[11] = test system: Rattus norvegicus; assay: Hallucinogenic property was determined in groups of LSD trained rats and percentage of animals disrupted was reported at a dose 2.2 (umol/kg), (number of animals = 15); format: functional
[12] = test system: Rattus norvegicus; assay: Monoamine levels in rat brain were evaluated after subcutaneous administration of 40 mg/kg for DA; format: functional
[13] = organism: Rattus norvegicus; assay: Compounds were evaluated for binding of [3H]paroxetine to rat hippocampal homogenate and number of binding sites (Bmax) for serotonin; format: tissue-based; conditions: Hippocampus
[14] = test system: Rattus norvegicus; assay: Hallucinogenic property was determined in groups of LSD trained rats and percentage of animals disrupted was reported at 4.39 (umol/kg),(number of animals =11); format: functional
[15] = test system: Rattus norvegicus; assay: Hallucinogenic property was determined in groups of MDMA trained rats and percentage of animals disrupted was reported at a dose 4.39 (umol/kg),(number of animals = 9); format: functional
[16] = test system: Rattus norvegicus; assay: Monoamine levels in rat brain were evaluated after subcutaneous administration of 40 mg/kg for 5-HT; format: functional
[17] = test system: Rattus norvegicus; assay: Hallucinogenic property was determined in groups of LSD trained rats and percentage of animals disrupted was reported at a dose 13.18 (umol/kg),(number of animals = 15); format: functional
[18] = test system: Rattus norvegicus; assay: Monoamine levels in rat brain were evaluated after subcutaneous administration of 40 mg/kg for NE; format: functional
[19] = test system: Rattus norvegicus; assay: Tested for stimulus generation in rats trained to discriminate +/-MDMA from saline at 4.39 (umol/kg),(number of animals = 9); format: functional
[20] = test system: Rattus norvegicus; assay: Hallucinogenic property was determined in groups of MDMA trained rats and percentage of animals disrupted was reported at a dose 8.78 (umol/kg), (number of animals = 8); format: functional
[21] = test system: Rattus norvegicus; assay: Tested for stimulus generation in rats trained to discriminate LSD from saline at a dose 8.78 (umol/kg), (number of animals = 16); format: functional
[22] = test system: Rattus norvegicus; assay: Tested for stimulus generation in rats trained to discriminate +/-MDMA from saline at 2.2 (umol/kg), (number of animals =9); format: functional
[23] = test system: Rattus norvegicus; assay: Monoamine levels in rat brain were evaluated after subcutaneous administration of 40 mg/kg for 5-HIAA; format: functional
[24] = test system: Rattus norvegicus; assay: Monoamine levels in rat hippocampus were evaluated after subcutaneous administration of 40 mg/kg for 5-HIAA; format: functional
[25] = test system: Rattus norvegicus; assay: Hallucinogenic property was determined in groups of LSD trained rats and percentage of animals disrupted was reported at a dose 8.78 (umol/kg), (number of animals = 16); format: functional
[26] = test system: Rattus norvegicus; assay: Tested for stimulus generation in rats trained to discriminate +/-MDMA from saline at 17.57 (umol/kg), (number of animals =11); format: functional
[27] = test system: Rattus norvegicus; assay: Monoamine levels in rat brain were evaluated after subcutaneous administration of 40 mg/kg for DOPAC; format: functional
[28] = test system: Rattus norvegicus; assay: Monoamine levels in rat brain were evaluated after subcutaneous administration of 40 mg/kg for HVA; format: functional
[29] = test system: Rattus norvegicus; assay: Hallucinogenic property was determined in groups of MDMA trained rats and percentage of animals disrupted was reported at a dose 17.57(umol/kg), (number of animals =11); format: functional
[30] = test system: Rattus norvegicus; assay: Hallucinogenic property was determined in groups of LSD trained rats and percentage of animals disrupted was reported at 0.023 (umol/kg) (number of animals = 8); format: functional
[31] = test system: Rattus norvegicus; assay: Tested for stimulus generation in rats trained to discriminate LSD from saline at a dose 0.012 (umol/kg),(number of animals = 8); format: functional
[32] = organism: Rattus norvegicus; assay: Inhibitory activity was determined LSD trained rats; format: functional
[33] = test system: Rattus norvegicus; assay: Tested for stimulus generation in rats trained to discriminate LSD from saline at a dose 0.023 (umol/kg) (number of animals = 8); format: functional
[34] = test system: Rattus norvegicus; assay: Hallucinogenic property was determined in groups of LSD trained rats and percentage of animals disrupted was reported at a dose 0.093(umol/kg) (number of animals = 8); format: functional
[35] = test system: Rattus norvegicus; assay: Hallucinogenic property was determined in groups of LSD trained rats and percentage of animals disrupted was reported at a dose 0.186 (umol/kg),(number of animals = 8); format: functional
[36] = test system: Rattus norvegicus; assay: Hallucinogenic property was determined in groups of LSD trained rats and percentage of animals disrupted was reported at a dose 0.012 (umol/kg),(number of animals = 8); format: functional
[37] = test system: Rattus norvegicus; assay: Hallucinogenic property was determined in groups of LSD trained rats and percentage of animals disrupted was reported at a dose 0.046(umol/kg) (number of animals = 9); format: functional
[38] = test system: Rattus norvegicus; assay: Tested for stimulus generation in rats trained to discriminate LSD from saline at a dose 0.046(umol/kg) (number of animals = 9); format: functional
[39] = test system: Rattus norvegicus; assay: Tested for stimulus generation in rats trained to discriminate LSD from saline at a dose 0.093(umol/kg) (number of animals = 8); format: functional
[40] = test system: Rattus norvegicus; assay: Tested for stimulus generation in rats trained to discriminate LSD from saline at a dose 0.186 (umol/kg),(number of animals = 8); format: functional

NC1CCc2cc3c(cc2C1)OCO3 (stereo not given)
SDL [1]: 38% | Kd [2]: 0.102 nM | Kd [3]: 0.118 nM | D [4]: 11% | SDL [5]: 25% | Bmax [6]: 964 fM/g | Monoamine level [7]: 484 pg/mg | Monoamine level [8]: 256 pg/mg | SDL [9]: 63% | D [10]: 64% | D [11]: 47% | Monoamine level [12]: 151 pg/mg | Bmax [13]: 778 fM/g | D [14]: 27% | D [15]: 11% | Monoamine level [16]: 356 pg/mg | D [17]: 67% | Monoamine level [18]: 367 pg/mg | SDL [19]: 50% | D [20]: 0% | SDL [21]: 63% | SDL [22]: 13% | Monoamine level [23]: 370 pg/mg | Monoamine level [24]: 549 pg/mg | D [25]: 50% | SDL [26]: 88% | Monoamine level [27]: 213 pg/mg | Monoamine level [28]: 262 pg/mg | D [29]: 27%

CCN(CC)C(=O)[C@@H]1C=C2c3cccc4[nH]cc(c34)C[C@H]2N(C)C1 [LYSERGIDE]
D [30]: 0% | SDL [31]: 13% | ED50 [32]: 0.048 µM/kg and 0.021 µM/kg | SDL [33]: 0% | D [34]: 0% | D [35]: 0% | D [36]: 0% | D [37]: 0% | SDL [38]: 44% | SDL [39]: 88% | SDL [40]: 100%
